What was measured:
[1] = PAO/ester/triclosan migration from PP strips (weight loss, toluene wash, surface observation); type: physicochemical; conditions: fast cooled PP strips
Description: Preparation of sample 24892-114-0 to 7: The polypropylene described above (85% by weight) was melt blended in a mixer with 15 wt % triclosan stock solution as prepared in Table 2. The mixed polymer was then compression molded into 4″×4″ squares with less than 1 mm thickness. Two methods were used to prepare the PP strip with very different results. One method includes fast cooling after the compression molding (quench sample with a 7° C. cooling surface). The sample strip had PAO fluid on surface indicating fast PAO migration after a few hours at room temperature. The other method included slow cooling after the compression molding (cool sample in ambient air, 23° C.). Sample strip appeared very dry with no apparent PAO fluid on surface. When this sample was put into 70° C. oven, slight oiliness was observed on the surface.
Table 4 below depicts the PAO/ester/Triclosan migration from the PP strips as measured by weight loss in 7 days.
For fast cooled PP strips, there was up to 1.8 wt % weight loss by toluene wash due to PAO/ester/Triclosan migration to the surface.

[2] = Solubility of triclosan in PAO carrier fluid; type: physicochemical; conditions: PAO without ester

Oc1cc(Cl)ccc1Oc1ccc(Cl)cc1Cl [Triclosan]
migration to the surface, confirmed by GC analysis of the toluene wash [1]: migrated to the surface | solubility in PAO alone [2]: low solubility
